Assay results published in ChEMBL document CHEMBL1649467, “Impact of human serum albumin on oritavancin in vitro activity against enterococci” (Antimicrob Agents Chemother, 2009).
In brackets after ≈: the same amount, converted by molar mass.

Key:
Enterococcus faecium [1] = test: Selectivity ratio of MIC for Enterococcus faecium ATCC 51559 in presence of 4% HSA to MIC for Enterococcus faecium ATCC 51559; type: functional
Enterococcus faecium [2] = test: Bactericidal activity against vancomycin-resistant Enterococcus faecium ATCC 51559 expressing vanA gene assessed as change in bacterial count at 32 ug/ml by time-kill assay; type: functional
Enterococcus faecium [3] = test: Bactericidal activity against vancomycin-resistant Enterococcus faecium 1059060 expressing vanA gene assessed as change in bacterial count at 2 ug/ml by time-kill assay; type: functional
Enterococcus faecalis [4] = test: Selectivity ratio of MIC for Enterococcus faecalis ATCC 51299 in presence of 4% HSA to MIC for Enterococcus faecalis 51299; type: functional
Enterococcus faecalis [5] = test: Selectivity ratio of MIC for Enterococcus faecalis 1058946 in presence of 4% HSA to MIC for Enterococcus faecalis 1058946; type: functional
Enterococcus faecium [6] = test: Bactericidal activity against vancomycin-resistant Enterococcus faecium ATCC 51559 expressing vanA gene assessed as change in bacterial count at 2 ug/ml by time-kill assay; type: functional
Enterococcus faecalis [7] = test: Bactericidal activity against vancomycin-resistant Enterococcus faecalis ATCC 51299 expressing vanB gene assessed as change in bacterial count at 2 ug/ml by time-kill assay; type: functional
Enterococcus faecalis [8] = test: Antimicrobial activity against vancomycin-susceptible Enterococcus faecalis ATCC 29212 by broth dilution method in presence of 4% HSA; type: functional
[9] = Free fraction in healthy human male at 200 mg, iv every 24 hrs by LC/MS/MS analysis; type: ADME, organism-based; settings: in vivo
Enterococcus faecalis [10] = test: Antimicrobial activity against vancomycin-resistant Enterococcus faecalis 1058946 by broth dilution method in presence of 4% HSA; type: functional
Enterococcus faecium [11] = test: Bactericidal activity against vancomycin-resistant Enterococcus faecium 1059060 expressing vanA gene assessed as change in bacterial count at 32 ug/ml by time-kill assay; type: functional
Enterococcus faecium [12] = test: Antimicrobial activity against vancomycin-resistant Enterococcus faecium 1119175 by broth dilution method; type: functional
Enterococcus faecalis [13] = test: Bactericidal activity against vancomycin-susceptible Enterococcus faecalis ATCC 29212 assessed as change in bacterial count at 2 ug/ml by time-kill assay; type: functional
Enterococcus faecalis [14] = test: Bactericidal activity against vancomycin-resistant Enterococcus faecalis 1058946 expressing vanA gene assessed as change in bacterial count at 2 ug/ml by time-kill assay; type: functional
Enterococcus faecalis [15] = test: Bactericidal activity against vancomycin-resistant Enterococcus faecalis ATCC 51299 expressing vanB gene assessed as change in bacterial count at 32 ug/ml by time-kill assay; type: functional
Enterococcus faecium [16] = test: Bactericidal activity against vancomycin-resistant Enterococcus faecium 1119175 expressing vanB gene assessed as change in bacterial count at 32 ug/ml by time-kill assay; type: functional
Enterococcus faecalis [17] = test: Antimicrobial activity against vancomycin-susceptible Enterococcus faecalis ATCC 29212 by broth dilution method; type: functional
Enterococcus faecium [18] = test: Antimicrobial activity against vancomycin-resistant Enterococcus faecium ATCC 51559 by broth dilution method; type: functional
Enterococcus faecalis [19] = test: Bactericidal activity against vancomycin-resistant Enterococcus faecalis 1058946 expressing vanA gene assessed as change in bacterial count at 32 ug/ml by time-kill assay; type: functional
Enterococcus faecalis [20] = test: Antimicrobial activity against vancomycin-resistant Enterococcus faecalis ATCC 51299 by broth dilution method; type: functional
Enterococcus faecium [21] = test: Antimicrobial activity against vancomycin-resistant Enterococcus faecium ATCC 51559 by broth dilution method in presence of 4% HAS; type: functional
Enterococcus faecium [22] = test: Bactericidal activity against vancomycin-resistant Enterococcus faecium 1119175 expressing vanB gene assessed as change in bacterial count at 2 ug/ml by time-kill assay; type: functional
Enterococcus faecalis [23] = test: Antimicrobial activity against vancomycin-resistant Enterococcus faecalis 1058946 by broth dilution method; type: functional
Enterococcus faecalis [24] = test: Bactericidal activity against vancomycin-susceptible Enterococcus faecalis ATCC 29212 assessed as change in bacterial count at 32 ug/ml by time-kill assay; type: functional
Enterococcus faecium [25] = test: Antimicrobial activity against vancomycin-resistant Enterococcus faecium 1059060 by broth dilution method in presence of 4% HSA; type: functional
Enterococcus faecium [26] = test: Selectivity ratio of MIC for Enterococcus faecium 1059060 in presence of 4% HSA to MIC for Enterococcus faecium 1059060; type: functional
[27] = Cmax in healthy human male at 200 mg, iv every 24 hrs by LC/MS/MS analysis; type: ADME, organism-based; parameters: dose 200 mg, route intravenous; settings: in vivo
Enterococcus faecium [28] = test: Antimicrobial activity against vancomycin-resistant Enterococcus faecium 1119175 by broth dilution method in presence of 4% HSA; type: functional
Enterococcus faecalis [29] = test: Antimicrobial activity against vancomycin-resistant Enterococcus faecalis ATCC 51299 by broth dilution method in presence of 4% HSA; type: functional
Enterococcus faecalis [30] = test: Selectivity ratio of MIC for Enterococcus faecalis ATCC 29212 in presence of 4% HSA to MIC for Enterococcus faecalis ATCC 29212; type: functional
Enterococcus faecium [31] = test: Antimicrobial activity against vancomycin-resistant Enterococcus faecium 1059060 by broth dilution method; type: functional
Enterococcus faecium [32] = test: Bactericidal activity against vancomycin-resistant Enterococcus faecium 1059060 expressing vanA gene assessed as change in bacterial count at 16 ug/ml by time-kill assay; type: functional
Enterococcus faecium [33] = test: Bactericidal activity against vancomycin-resistant Enterococcus faecium ATCC 51559 expressing vanA gene assessed as change in bacterial count at 64 ug/ml by time-kill assay; type: functional
[34] = Cmax in healthy human male at 1000 mg, iv every 12 hrs by LC/MS/MS analysis; type: ADME, organism-based; parameters: dose 1000 mg, route intravenous; settings: in vivo
Enterococcus faecium [35] = test: Bactericidal activity against vancomycin-resistant Enterococcus faecium 1059060 expressing vanA gene assessed as change in bacterial count at 64 ug/ml by time-kill assay; type: functional
[36] = Free fraction in healthy human male at 1000 mg, iv every 12 hrs by LC/MS/MS analysis; type: ADME, organism-based; settings: in vivo
Enterococcus faecalis [37] = test: Bactericidal activity against vancomycin-susceptible Enterococcus faecalis ATCC 29212 assessed as change in bacterial count at 64 ug/ml by time-kill assay; type: functional
Enterococcus faecium [38] = test: Bactericidal activity against vancomycin-resistant Enterococcus faecium 1119175 expressing vanB gene assessed as change in bacterial count at 16 ug/ml by time-kill assay; type: functional
Enterococcus faecalis [39] = test: Bactericidal activity against vancomycin-resistant Enterococcus faecalis 1058946 expressing vanA gene assessed as change in bacterial count at 64 ug/ml by time-kill assay; type: functional
Enterococcus faecium [40] = test: Bactericidal activity against vancomycin-resistant Enterococcus faecium 1119175 expressing vanB gene assessed as change in bacterial count at 64 ug/ml by time-kill assay; type: functional
Enterococcus faecium [41] = test: Bactericidal activity against vancomycin-resistant Enterococcus faecium ATCC 51559 expressing vanA gene assessed as change in bacterial count at 16 ug/ml by time-kill assay; type: functional
Enterococcus faecalis [42] = test: Bactericidal activity against vancomycin-susceptible Enterococcus faecalis ATCC 29212 assessed as change in bacterial count at 16 ug/ml by time-kill assay; type: functional
Enterococcus faecalis [43] = test: Bactericidal activity against vancomycin-resistant Enterococcus faecalis 1058946 expressing vanA gene assessed as change in bacterial count at 16 ug/ml by time-kill assay; type: functional
Enterococcus faecalis [44] = test: Bactericidal activity against vancomycin-resistant Enterococcus faecalis ATCC 51299 expressing vanB gene assessed as change in bacterial count at 64 ug/ml by time-kill assay; type: functional
Enterococcus faecalis [45] = test: Bactericidal activity against vancomycin-resistant Enterococcus faecalis ATCC 51299 expressing vanB gene assessed as change in bacterial count at 16 ug/ml by time-kill assay; type: functional

## CN[C@H](CC(C)C)C(=O)N[C@H]1C(=O)N[C@@H](CC(N)=O)C(=O)N[C@H]2C(=O)N[C@H]3C(=O)N[C@H](C(=O)N[C@H](C(=O)O)c4cc(O)cc(O)c4-c4cc3ccc4O)[C@H](O[C@H]3C[C@](C)(N)[C@@H](O)[C@H](C)O3)c3ccc(c(Cl)c3)Oc3cc2cc(c3O[C@@H]2O[C@H](CO)[C@@H](O)[C@H](O)[C@H]2O[C@H]2C[C@](C)(NCc3ccc(-c4ccc(Cl)cc4)cc3)[C@@H](O)[C@H](C)O2)Oc2ccc(cc2Cl)[C@H]1O [ORITAVANCIN]
Enterococcus faecium [1]
  Ratio: 2
Enterococcus faecium [2]
  log10CFU/ml: -1.2
Enterococcus faecium [3]
  log10CFU/ml: 1
Enterococcus faecalis [4]
  Ratio: 8
Enterococcus faecalis [5]
  Ratio: 4
Enterococcus faecium [6]
  log10CFU/ml: 1.1
Enterococcus faecalis [7]
  log10CFU/ml: -1.2
Enterococcus faecalis [8]
  MIC: 0.016 mg/L
[9]
  fraction unbound at 24 h: 0.12
Enterococcus faecalis [10]
  MIC: 2 mg/L
Enterococcus faecium [11]
  log10CFU/ml: -0.85
Enterococcus faecium [12]
  MIC: 0.016 mg/L (≈ 0.00892 µM)
Enterococcus faecalis [13]
  log10CFU/ml: -0.48
Enterococcus faecalis [14]
  log10CFU/ml: 1.4
Enterococcus faecalis [15]
  log10CFU/ml: -1.6
Enterococcus faecium [16]
  log10CFU/ml: -1.4
Enterococcus faecalis [17]
  MIC: 0.008 mg/L (≈ 0.00446 µM)
Enterococcus faecium [18]
  MIC: 0.25 mg/L (≈ 0.139 µM)
Enterococcus faecalis [19]
  log10CFU/ml: -1.2
Enterococcus faecalis [20]
  MIC: 0.008 mg/L (≈ 0.00446 µM)
Enterococcus faecium [21]
  MIC: 0.5 mg/L
Enterococcus faecium [22]
  log10CFU/ml: 1.5
Enterococcus faecalis [23]
  MIC: 0.5 mg/L (≈ 0.279 µM)
Enterococcus faecalis [24]
  log10CFU/ml: -3.3
Enterococcus faecium [25]
  MIC: 4 mg/L
Enterococcus faecium [26]
  Ratio: 8
[27]
  Cmax: 32 µg/mL
Enterococcus faecium [28]
  MIC: 0.01 mg/L
Enterococcus faecalis [29]
  MIC: 0.06 mg/L
Enterococcus faecalis [30]
  Ratio: 2
Enterococcus faecium [31]
  MIC: 0.5 mg/L (≈ 0.279 µM)

## CN[C@H](CC(C)C)C(=O)N[C@H]1C(=O)N[C@@H](CC(N)=O)C(=O)N[C@H]2C(=O)N[C@H]3C(=O)N[C@H](C(=O)N[C@H](C(=O)O)c4cc(O)cc(O)c4-c4cc3ccc4O)[C@H](O)c3ccc(c(Cl)c3)Oc3cc2cc(c3O[C@@H]2O[C@H](CO)[C@@H](O)[C@H](O)[C@H]2O[C@H]2C[C@](C)(N)[C@H](O)[C@H](C)O2)Oc2ccc(cc2Cl)[C@H]1O [VANCOMYCIN]
Enterococcus faecium [32]
  log10CFU/ml: 2.3
Enterococcus faecium [33]
  log10CFU/ml: 2.2
[34]
  Cmax: 64 µg/mL
Enterococcus faecium [35]
  log10CFU/ml: 2.2
Enterococcus faecalis [8]
  MIC: 2 mg/L
[36]
  fraction unbound at 12 h: 0.54
Enterococcus faecalis [37]
  log10CFU/ml: -0.76
Enterococcus faecalis [10]
  MIC: > 128 mg/L
Enterococcus faecium [12]
  MIC: > 128 mg/L
Enterococcus faecalis [17]
  MIC: 2 mg/L (≈ 1.38 µM)
Enterococcus faecium [38]
  log10CFU/ml: 1.1
Enterococcus faecalis [39]
  log10CFU/ml: 2.3
Enterococcus faecium [18]
  MIC: > 128 mg/L
Enterococcus faecium [40]
  log10CFU/ml: 1.2
Enterococcus faecium [41]
  log10CFU/ml: 2.6
Enterococcus faecalis [20]
  MIC: 128 mg/L (≈ 88.3 µM)
Enterococcus faecalis [42]
  log10CFU/ml: -1.7
Enterococcus faecium [21]
  MIC: > 128 mg/L
Enterococcus faecalis [43]
  log10CFU/ml: 2.5
Enterococcus faecalis [44]
  log10CFU/ml: 0.85
Enterococcus faecalis [23]
  MIC: > 128 mg/L
Enterococcus faecalis [45]
  log10CFU/ml: 2.3
Enterococcus faecium [25]
  MIC: > 128 mg/L
Enterococcus faecium [28]
  MIC: > 128 mg/L
Enterococcus faecalis [29]
  MIC: 128 mg/L
Enterococcus faecium [31]
  MIC: > 128 mg/L
